# Measurements taken from PubChem BioAssay (NCI).
#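 Briefly, cells in 96-well plates were exposed to five compound concentrations for 48 h, and endpoints were estimated by linear interpolation. Abbreviation: GI50, concentration required for 50% inhibition of growth. At the TGI there is no net growth.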
# Key:
# Experiment in all cases: NCI tumour cell line growth inhibition, 48 h
# SR leukemia = system: SR leukemia
# M19-MEL melanoma = system: M19-MEL melanoma
# MALME-3M melanoma = system: MALME-3M melanoma
# A498 renal = system: A498 renal
# OVCAR-8 ovarian = system: OVCAR-8 ovarian
# HOP-92 NSCLC = system: HOP-92 NSCLC
# DMS 273 small cell lung = system: DMS 273 small cell lung
# UO-31 renal = system: UO-31 renal
# RPMI-8226 leukemia = system: RPMI-8226 leukemia
# DMS 114 small cell lung = system: DMS 114 small cell lung
# OVCAR-3 ovarian = system: OVCAR-3 ovarian
# SK-MEL-5 melanoma = system: SK-MEL-5 melanoma
# NCI-H23 lung = system: NCI-H23 lung
# EKVX NSCLC = system: EKVX NSCLC
# HOP-18 NSCLC = system: HOP-18 NSCLC
# HOP-62 NSCLC = system: HOP-62 NSCLC
# K-562 leukemia = system: K-562 leukemia
# IGROV1 ovarian = system: IGROV1 ovarian
# HCC-2998 colon = system: HCC-2998 colon
# ACHN renal = system: ACHN renal
# RXF-631 renal = system: RXF-631 renal
# NCI-H226 lung = system: NCI-H226 lung
# A549 NSCLC = system: A549 NSCLC
# SK-OV-3 ovarian = system: SK-OV-3 ovarian
# XF 498 CNS = system: XF 498 CNS
# OVCAR-5 ovarian = system: OVCAR-5 ovarian
# TK-10 renal = system: TK-10 renal
# U251 CNS = system: U251 CNS
# M14 melanoma = system: M14 melanoma
# SN12C renal = system: SN12C renal
# RXF 393 renal = system: RXF 393 renal
# LXFL 529 NSCLC = system: LXFL 529 NSCLC
# COLO 205 colon = system: COLO 205 colon
# CCRF-CEM leukemia = system: CCRF-CEM leukemia
# HT29 colon = system: HT29 colon
# OVCAR-4 ovarian = system: OVCAR-4 ovarian
# KM20L2 colon = system: KM20L2 colon
# KM12 colon = system: KM12 colon
# HCT-15 colon = system: HCT-15 colon
# SNB-78 CNS = system: SNB-78 CNS
# DLD-1 colon = system: DLD-1 colon
# NCI-H460 lung = system: NCI-H460 lung
# UACC-62 melanoma = system: UACC-62 melanoma
# SF-295 CNS = system: SF-295 CNS
# LOX IMVI melanoma = system: LOX IMVI melanoma
# UACC-257 melanoma = system: UACC-257 melanoma
# SW-620 colon = system: SW-620 colon
# MOLT-4 leukemia = system: MOLT-4 leukemia
# SK-MEL-28 melanoma = system: SK-MEL-28 melanoma
# SF-268 CNS = system: SF-268 CNS
# SK-MEL-2 melanoma = system: SK-MEL-2 melanoma
# SF-539 CNS = system: SF-539 CNS
# HL-60(TB) leukemia = system: HL-60(TB) leukemia
# HCT-116 colon = system: HCT-116 colon
# 786-0 renal = system: 786-0 renal
# CAKI-1 renal = system: CAKI-1 renal
# SNB-75 CNS = system: SNB-75 CNS
# BT-549 breast = system: BT-549 breast
# PC-3 prostate = system: PC-3 prostate
# T-47D breast = system: T-47D breast
# DU-145 prostate = system: DU-145 prostate
# HS 578T breast = system: HS 578T breast
# SNB-19 CNS = system: SNB-19 CNS
# NCI-H522 lung = system: NCI-H522 lung
# MDA-MB-231 breast = system: MDA-MB-231 breast
# NCI/ADR-RES ovarian = system: NCI/ADR-RES ovarian
# MDA-N = system: MDA-N
# MDA-MB-435 = system: MDA-MB-435
# MCF7 breast = system: MCF7 breast
compound,measurement,setting,value
N#Cc1cnsc1,TGI,SR leukemia,> 100 µM
same,TGI,M19-MEL melanoma,> 100 µM
same,TGI,MALME-3M melanoma,> 100 µM
same,TGI,A498 renal,> 100 µM
same,TGI,OVCAR-8 ovarian,> 100 µM
same,TGI,HOP-92 NSCLC,> 100 µM
same,TGI,DMS 273 small cell lung,> 100 µM
same,TGI,UO-31 renal,> 100 µM
same,TGI,RPMI-8226 leukemia,> 100 µM
same,TGI,DMS 114 small cell lung,> 100 µM
same,TGI,OVCAR-3 ovarian,> 100 µM
same,TGI,SK-MEL-5 melanoma,> 100 µM
same,TGI,NCI-H23 lung,> 100 µM
same,TGI,EKVX NSCLC,> 100 µM
same,TGI,HOP-18 NSCLC,> 100 µM
same,TGI,HOP-62 NSCLC,> 100 µM
same,TGI,K-562 leukemia,> 100 µM
same,TGI,IGROV1 ovarian,> 100 µM
same,TGI,HCC-2998 colon,> 100 µM
same,TGI,ACHN renal,> 100 µM
same,TGI,RXF-631 renal,> 100 µM
same,TGI,NCI-H226 lung,> 100 µM
same,TGI,A549 NSCLC,> 100 µM
same,TGI,SK-OV-3 ovarian,> 100 µM
same,TGI,XF 498 CNS,> 100 µM
same,TGI,OVCAR-5 ovarian,> 100 µM
same,TGI,TK-10 renal,> 100 µM
same,TGI,U251 CNS,> 100 µM
same,TGI,M14 melanoma,> 100 µM
same,TGI,SN12C renal,> 100 µM
same,TGI,RXF 393 renal,> 100 µM
same,TGI,LXFL 529 NSCLC,> 100 µM
same,TGI,COLO 205 colon,> 100 µM
same,TGI,CCRF-CEM leukemia,> 100 µM
same,TGI,HT29 colon,> 100 µM
same,TGI,OVCAR-4 ovarian,> 100 µM
same,TGI,KM20L2 colon,> 100 µM
same,TGI,KM12 colon,> 100 µM
same,TGI,HCT-15 colon,> 100 µM
same,TGI,SNB-78 CNS,> 100 µM
same,TGI,DLD-1 colon,> 100 µM
same,TGI,NCI-H460 lung,> 100 µM
same,TGI,UACC-62 melanoma,> 100 µM
same,TGI,SF-295 CNS,> 100 µM
same,TGI,LOX IMVI melanoma,> 100 µM
same,TGI,UACC-257 melanoma,> 100 µM
same,TGI,SW-620 colon,> 100 µM
same,TGI,MOLT-4 leukemia,> 100 µM
same,TGI,SK-MEL-28 melanoma,> 100 µM
same,TGI,SF-268 CNS,> 100 µM
same,TGI,SK-MEL-2 melanoma,> 100 µM
same,TGI,SF-539 CNS,> 100 µM
same,TGI,HL-60(TB) leukemia,> 100 µM
same,TGI,HCT-116 colon,> 100 µM
same,TGI,786-0 renal,> 100 µM
same,TGI,CAKI-1 renal,> 100 µM
same,TGI,SNB-75 CNS,> 100 µM
COc1cc(C2c3cc4c(cc3[C@H](OCCN(C)C)[C@@H]3COC(=O)C23)OCO4)cc(OC)c1O (some centres not stated),TGI,SR leukemia,0.778 µM
same,TGI,M19-MEL melanoma,4.79 µM
same,TGI,BT-549 breast,2.32 µM
same,TGI,MALME-3M melanoma,1.73 µM
same,TGI,A498 renal,1.22 µM
same,TGI,OVCAR-8 ovarian,2.92 µM
same,TGI,HOP-92 NSCLC,1.5 µM
same,TGI,DMS 273 small cell lung,1.31 µM
same,TGI,UO-31 renal,1.71 µM
same,TGI,RPMI-8226 leukemia,> 100 µM
same,TGI,PC-3 prostate,81.1 µM
same,TGI,OVCAR-3 ovarian,4.08 µM
same,TGI,SK-MEL-5 melanoma,1.74 µM
same,TGI,T-47D breast,2.52 µM
same,TGI,NCI-H23 lung,1.3 µM
same,TGI,EKVX NSCLC,1.5 µM
same,TGI,HOP-18 NSCLC,> 100 µM
same,TGI,HOP-62 NSCLC,0.366 µM
same,TGI,K-562 leukemia,15.9 µM
same,TGI,IGROV1 ovarian,7.5 µM
same,TGI,DU-145 prostate,0.549 µM
same,TGI,HCC-2998 colon,2.55 µM
same,TGI,ACHN renal,0.253 µM
same,TGI,RXF-631 renal,1.07 µM
same,TGI,NCI-H226 lung,0.301 µM
same,TGI,A549 NSCLC,1.34 µM
same,TGI,SK-OV-3 ovarian,1.31 µM
same,TGI,XF 498 CNS,1.88 µM
same,TGI,HS 578T breast,6.04 µM
same,TGI,OVCAR-5 ovarian,3.82 µM
same,TGI,TK-10 renal,17.9 µM
same,GI50,U251 CNS,0.0409 µM
same,TGI,U251 CNS,0.898 µM
same,TGI,M14 melanoma,2.58 µM
same,TGI,SN12C renal,0.598 µM
same,TGI,RXF 393 renal,1.55 µM
same,TGI,LXFL 529 NSCLC,28 µM
same,TGI,COLO 205 colon,9.05 µM
same,TGI,CCRF-CEM leukemia,1.73 µM
same,TGI,HT29 colon,3.01 µM
same,TGI,OVCAR-4 ovarian,4.97 µM
same,TGI,KM20L2 colon,2.98 µM
same,TGI,KM12 colon,8.95 µM
same,GI50,HCT-15 colon,0.344 µM
same,TGI,HCT-15 colon,> 100 µM
same,TGI,SNB-78 CNS,> 93.2 µM
same,TGI,DLD-1 colon,3.96 µM
same,TGI,SNB-19 CNS,5.98 µM
same,TGI,NCI-H460 lung,0.766 µM
same,TGI,NCI-H522 lung,2.35 µM
same,TGI,UACC-62 melanoma,0.496 µM
same,TGI,SF-295 CNS,0.583 µM
same,TGI,LOX IMVI melanoma,0.803 µM
same,TGI,UACC-257 melanoma,11.4 µM
same,TGI,MDA-MB-231 breast,39.3 µM
same,TGI,SW-620 colon,3.4 µM
same,TGI,MOLT-4 leukemia,0.684 µM
same,TGI,NCI/ADR-RES ovarian,15.1 µM
same,TGI,MDA-N,30 µM
same,TGI,SK-MEL-28 melanoma,4.51 µM
same,TGI,SF-268 CNS,2.97 µM
same,TGI,SK-MEL-2 melanoma,2.44 µM
same,TGI,MDA-MB-435,16.9 µM
same,TGI,MCF7 breast,> 100 µM
same,TGI,SF-539 CNS,0.449 µM
same,TGI,HL-60(TB) leukemia,0.118 µM
same,TGI,HCT-116 colon,7.18 µM
same,TGI,786-0 renal,0.439 µM
same,TGI,CAKI-1 renal,1.07 µM
same,TGI,SNB-75 CNS,3.79 µM
